The values that follow come from US6093732A, “4-hydroxyquinoline-3-carboxamides and hydrazides as antiviral agents” (Pharmacia & Upjohn Company, priority 1998, dated 2000).

Format in all cases: biochemical
One test has as its target HSV polymerase (Human herpesvirus 1, UniProt P04293). Description: HSV polymerase assay (procedure similar to the HCMV polymerase SPA). The conditions noted are these: Table 1, read-out: Antiviral Selective Polymerase IC50 Values, HSV. The method, then:
(§1) The HCMV polymerase assay is performed using a scintillation proximity assay (SPA) as described in several references, such as N. D. Cook, et al., Pharmaceutical Manufacturing International, pages 49-53 (1992); K. Takeuchi, Laboratory Practice, September issue (1992); U.S. Pat. No. 4,568,649 (1986); which are incorporated by reference herein. Reactions are performed in 96-well plates. The assay is conducted in 100 μl volume with 5.4 mM HEPES (pH 7.5), 11.7 mM KCl, 4.5 mM MgCl2, 0.36 mg/ml BSA, and 90 nM ^3 H-dTTP. Assays are run with and without CHAPS, (3-[(3-Cholamidopropyl)-dimethylammonio]-1-propane-sulfonate) at a final concentration of 2 mM. HCMV polymerase is diluted in enzyme dilution buffer containing 50% glycerol, 250 mM NaCl, 10 mM HEPES (pH 7.5), 100 μg/ml BSA, and 0.01% sodium azide. The HCMV polymerase, which is expressed in recombinant baculovirus-infected SF-9 cells and purified according to literature procedures, is added at 10% (or 10 μl) of the final reaction volume, i.e., 100 μl. Compounds are diluted in 50% DMSO and 10 μl are added to each well. Control wells contain an equivalent concentration of DMSO. Unless noted otherwise, reactions are initiated via the addition of 6 nM biotinylated poly(dA)-oligo(dT) template/primer to reaction mixtures containing the enzyme, substrate, and compounds of interest. Plates are incubated in a 25° C. or 37° C. H2 O bath and terminated via the addition of 40 μl/reaction of 0.5 M EDTA (pH 8) per well. Reactions are terminated within the time-frame during which substrate incorporation is linear and varied depending upon the enzyme and conditions used, i.e., 30 min. for HCMV polymerase. Ten μl of streptavidin-SPA beads (20 mg/ml in PBS/10% glycerol) are added following termination of the reaction. Plates are incubated 10 min. at 37° C., then equilibrated to room temperature, and counted on a Packard Topcount. Linear regressions are performed and IC50 's are calculated using computer software.
(§2) A modified version of the above HCMV polymerase assay is performed as described above, but with the following changes: Compounds are diluted in 100% DMSO until final dilution into assay buffer. In the previous assay, compounds are diluted in 50% DMSO. 4.5 mM dithiotherotol (DTT) is added to the polymerase buffer. […] Other viral polymerase assays are performed using procedures similar to those described above.

The next test concerns the target T1, HCMV polymerase (Human cytomegalovirus, UniProt P08546).
T1 construct: made in house; host or cells: recombinant baculovirus-infected SF-9 cells
Description: HCMV polymerase scintillation proximity assay (SPA), modified version. The conditions noted are these: CMV polymerase; Table 1; modified assay with 4.5 mM DTT, compounds in 100% DMSO; read-out: Antiviral Selective Polymerase IC50 Values, CMV. A digest of the protocol:
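Recombinant polymerase (baculovirus/SF-9) in 5.4 mM HEPES pH 7.5, 11.7 mM KCl, 4.5 mM MgCl2, 0.36 mg/ml BSA, 90 nM 3H-dTTP, ±2 mM CHAPS; started with 6 nM biotinylated poly(dA)-oligo(dT), 25° C or 37° C, EDTA-stopped in linear range (30 min for HCMV). Streptavidin-SPA read; IC50 by linear regression. Modified version: 100% DMSO compound dilution, 4.5 mM DTT added.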

The target of the next test is VZV polymerase (Varicella-zoster virus, UniProt P09252). Description: VZV polymerase assay (procedure similar to the HCMV polymerase SPA). The conditions noted are these: Table 1, read-out: Antiviral Selective Polymerase IC50 Values, VZV. The method, then: as §1, §2
Sequence of VZV polymerase (P09252 whole entry): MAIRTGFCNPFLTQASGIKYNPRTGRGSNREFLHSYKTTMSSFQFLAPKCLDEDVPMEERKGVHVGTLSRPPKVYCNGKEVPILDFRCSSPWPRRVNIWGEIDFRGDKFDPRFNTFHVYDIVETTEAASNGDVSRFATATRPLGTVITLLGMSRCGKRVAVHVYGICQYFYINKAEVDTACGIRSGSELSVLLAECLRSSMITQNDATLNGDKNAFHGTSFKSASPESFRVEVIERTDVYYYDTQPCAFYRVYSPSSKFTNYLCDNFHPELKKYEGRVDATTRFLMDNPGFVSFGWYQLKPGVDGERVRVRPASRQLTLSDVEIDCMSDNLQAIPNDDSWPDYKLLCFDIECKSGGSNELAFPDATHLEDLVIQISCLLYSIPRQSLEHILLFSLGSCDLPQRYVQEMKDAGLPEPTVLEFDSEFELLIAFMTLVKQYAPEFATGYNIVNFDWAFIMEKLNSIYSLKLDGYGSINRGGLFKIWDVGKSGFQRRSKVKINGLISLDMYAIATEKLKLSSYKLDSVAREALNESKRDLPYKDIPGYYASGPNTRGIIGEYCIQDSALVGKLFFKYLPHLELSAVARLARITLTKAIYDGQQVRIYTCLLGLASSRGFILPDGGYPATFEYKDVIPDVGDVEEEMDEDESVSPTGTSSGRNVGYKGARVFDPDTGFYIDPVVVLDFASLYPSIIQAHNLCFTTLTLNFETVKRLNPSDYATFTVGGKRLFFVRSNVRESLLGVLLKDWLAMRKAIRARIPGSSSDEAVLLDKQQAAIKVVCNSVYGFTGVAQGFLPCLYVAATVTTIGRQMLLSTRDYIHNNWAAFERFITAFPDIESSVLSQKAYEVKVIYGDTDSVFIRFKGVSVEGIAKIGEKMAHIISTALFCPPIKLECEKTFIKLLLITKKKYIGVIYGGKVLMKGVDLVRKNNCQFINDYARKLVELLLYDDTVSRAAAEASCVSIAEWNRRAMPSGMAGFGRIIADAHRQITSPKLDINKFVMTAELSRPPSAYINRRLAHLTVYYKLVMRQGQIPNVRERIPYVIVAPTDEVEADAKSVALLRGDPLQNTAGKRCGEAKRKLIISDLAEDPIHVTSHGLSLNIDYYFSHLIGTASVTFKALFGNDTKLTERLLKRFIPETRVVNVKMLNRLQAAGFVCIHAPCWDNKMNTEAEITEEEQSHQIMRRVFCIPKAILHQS

Sequence of HSV polymerase (P04293 whole entry): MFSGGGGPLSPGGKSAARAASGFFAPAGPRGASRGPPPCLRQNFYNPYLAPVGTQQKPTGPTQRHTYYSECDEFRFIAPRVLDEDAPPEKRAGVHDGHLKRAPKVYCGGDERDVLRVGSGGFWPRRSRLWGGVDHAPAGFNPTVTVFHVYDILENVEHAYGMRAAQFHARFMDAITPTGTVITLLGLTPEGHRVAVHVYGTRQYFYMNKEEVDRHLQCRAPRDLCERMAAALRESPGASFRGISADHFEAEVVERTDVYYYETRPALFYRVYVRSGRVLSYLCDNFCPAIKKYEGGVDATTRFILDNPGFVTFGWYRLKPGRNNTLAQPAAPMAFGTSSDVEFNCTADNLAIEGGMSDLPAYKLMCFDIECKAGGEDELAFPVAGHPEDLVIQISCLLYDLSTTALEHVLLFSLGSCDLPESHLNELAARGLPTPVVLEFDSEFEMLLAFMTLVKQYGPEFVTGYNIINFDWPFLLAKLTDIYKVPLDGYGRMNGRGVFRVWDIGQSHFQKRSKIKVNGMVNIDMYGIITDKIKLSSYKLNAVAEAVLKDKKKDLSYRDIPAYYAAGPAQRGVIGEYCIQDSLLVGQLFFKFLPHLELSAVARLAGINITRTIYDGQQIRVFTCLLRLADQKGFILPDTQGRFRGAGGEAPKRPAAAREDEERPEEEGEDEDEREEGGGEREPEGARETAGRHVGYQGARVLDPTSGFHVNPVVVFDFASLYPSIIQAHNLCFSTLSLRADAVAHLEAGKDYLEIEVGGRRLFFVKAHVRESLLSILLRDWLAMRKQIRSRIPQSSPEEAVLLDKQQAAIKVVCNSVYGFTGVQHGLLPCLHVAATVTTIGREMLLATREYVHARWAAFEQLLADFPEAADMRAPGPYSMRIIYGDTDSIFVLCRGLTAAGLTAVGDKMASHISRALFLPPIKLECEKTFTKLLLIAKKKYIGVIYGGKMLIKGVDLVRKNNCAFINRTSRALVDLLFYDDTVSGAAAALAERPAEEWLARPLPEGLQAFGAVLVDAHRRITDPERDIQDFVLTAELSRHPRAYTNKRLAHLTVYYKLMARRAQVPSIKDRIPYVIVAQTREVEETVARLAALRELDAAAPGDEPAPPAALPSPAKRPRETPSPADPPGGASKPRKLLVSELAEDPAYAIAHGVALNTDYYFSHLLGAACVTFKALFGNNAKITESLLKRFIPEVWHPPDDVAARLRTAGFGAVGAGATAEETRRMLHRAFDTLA
T1 sequence (P08546 whole entry): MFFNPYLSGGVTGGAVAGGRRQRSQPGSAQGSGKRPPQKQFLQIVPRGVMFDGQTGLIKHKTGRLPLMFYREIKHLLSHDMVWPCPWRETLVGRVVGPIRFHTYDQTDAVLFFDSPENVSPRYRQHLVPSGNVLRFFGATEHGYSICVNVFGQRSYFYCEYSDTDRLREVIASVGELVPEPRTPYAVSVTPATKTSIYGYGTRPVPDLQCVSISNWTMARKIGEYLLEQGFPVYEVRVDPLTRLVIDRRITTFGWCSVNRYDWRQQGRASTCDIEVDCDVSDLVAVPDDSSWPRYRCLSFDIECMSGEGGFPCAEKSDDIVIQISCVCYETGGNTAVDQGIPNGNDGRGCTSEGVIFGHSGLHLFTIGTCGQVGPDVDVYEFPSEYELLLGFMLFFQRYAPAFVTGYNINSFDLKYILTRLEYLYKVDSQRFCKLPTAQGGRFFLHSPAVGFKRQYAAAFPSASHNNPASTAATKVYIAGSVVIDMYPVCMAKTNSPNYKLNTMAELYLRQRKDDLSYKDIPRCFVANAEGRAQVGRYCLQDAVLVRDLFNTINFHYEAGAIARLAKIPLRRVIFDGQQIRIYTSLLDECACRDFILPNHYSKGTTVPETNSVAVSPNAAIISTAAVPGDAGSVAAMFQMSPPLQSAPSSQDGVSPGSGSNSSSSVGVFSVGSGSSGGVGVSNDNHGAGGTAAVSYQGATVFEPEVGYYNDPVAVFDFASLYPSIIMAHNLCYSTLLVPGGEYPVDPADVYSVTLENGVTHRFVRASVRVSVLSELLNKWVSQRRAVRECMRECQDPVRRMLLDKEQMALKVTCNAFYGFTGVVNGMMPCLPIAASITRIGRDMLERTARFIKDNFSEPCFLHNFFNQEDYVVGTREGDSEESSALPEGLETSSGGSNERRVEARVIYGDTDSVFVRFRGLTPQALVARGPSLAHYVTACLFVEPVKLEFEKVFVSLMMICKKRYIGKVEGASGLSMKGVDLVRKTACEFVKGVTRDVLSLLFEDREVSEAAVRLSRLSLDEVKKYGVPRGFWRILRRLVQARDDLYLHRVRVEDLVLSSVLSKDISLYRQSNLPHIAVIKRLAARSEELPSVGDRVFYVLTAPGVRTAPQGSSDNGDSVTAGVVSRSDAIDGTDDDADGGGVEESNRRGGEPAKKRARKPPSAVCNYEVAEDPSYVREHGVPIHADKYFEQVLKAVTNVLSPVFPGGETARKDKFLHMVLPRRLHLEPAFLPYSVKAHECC

Take `CN(C)c1ccc2ncc(C(=O)NCc3ccc(Cl)cc3)c(O)c2c1` [Example 30, N-[(4-Chlorophenyl)methyl]-6-(dimethylamino)-4-hydroxy-3-quinolinecarboxamide]: the concentration for half-maximal inhibition (IC50) at HSV polymerase came out at 14.3 µM; on HCMV polymerase it was 10.6 µM; on VZV polymerase, 7.5 µM.

In the case of `O=C(NCc1ccc(Cl)cc1)c1cnc2ccc(-c3cccs3)cc2c1O` [Example 178, N-(4-Chlorobenzyl)-4-hydroxy-6-(2-thienyl)-3-quinolinecarboxamide], the half-inhibitory concentration (IC50) on HSV polymerase worked out at 0.8 µM; at HCMV polymerase it was 0.15 µM; on VZV polymerase, 0.64 µM.

`CC(C)(CCO)c1ccc2ncc(C(=O)NCc3ccc(Cl)cc3)c(O)c2c1` [Example 125, N-(4-Chlorobenzyl)-4-hydroxy-6-(3-hydroxy-1,1-dimethylpropyl)-3-quinolinecarboxamide]: the values for the IC50 at HSV polymerase, on HCMV polymerase and at VZV polymerase were 2.5 µM, 0.87 µM and 1.7 µM, respectively.

Take `O=C(NCc1ccc(Cl)cc1)c1cnc2cc(F)ccc2c1O` [Example 9, N-[(4-Chlorophenyl)methyl]-7-fluoro-4-hydroxy-3-quinolinecarboxamide]: the 50% inhibitory concentration (IC50) at HSV polymerase is less than 2.3 µM; on HCMV polymerase, less than 2.3 µM; at VZV polymerase it was 2.5 µM.

As for `CC(=O)Nc1ccc2c(O)c(C(=O)NCc3ccc(Cl)cc3)cnc2c1` [Example 25, 7-(Acetylamino)-N-[(4-chlorophenyl)methyl]-4-hydroxy-3-quinolinecarboxamide], the half-maximal inhibitory concentration (IC50) at HSV polymerase was 18.5 µM; on HCMV polymerase, 13.5 µM; at VZV polymerase, 8.4 µM.

In the case of `COc1cc(C#CCO)cc2c(O)c(C(=O)NCc3ccc(Cl)cc3)cnc12` [Example 118, N-(4-Chlorobenzyl)-4-hydroxy-6-(3-hydroxy-1-propynyl)-8-methoxy-3-quinolinecarboxamide], the 50% inhibitory concentration (IC50) on HSV polymerase came out at 0.66 µM; at HCMV polymerase, 0.67 µM; at VZV polymerase it was 0.2 µM.

Turning to `O=C(NCc1ccc(Cl)cc1)c1c[nH]c2ccc(/C=C/CO)cc2c1=O` [Example 136, N-[(4-Chlorophenyl)methyl]-1,4-dihydro-6-[(1E)-3-hydroxy-1-propenyl]-4-oxo-3-quinolinecarboxamide], the IC50 at HSV polymerase was 0.7 µM; on HCMV polymerase, 0.68 µM; on VZV polymerase, 0.39 µM.

Turning to `O=C(CBr)OCCCc1cc(F)c2ncc(C(=O)NCc3ccc(Cl)cc3)c(O)c2c1` [Example 145, 3-(3-{[(4-Chlorobenzyl)amino]carbonyl}-8-fluoro-4-hydroxy-6-quinolinyl)propyl 2-bromoacetate], the concentration for half-maximal inhibition (IC50) on HSV polymerase stood at 3.5 µM; at HCMV polymerase, 2.9 µM; at VZV polymerase, 2.5 µM.

In the case of `O=C(NCc1ccc(Cl)cc1)c1cnc2ccccc2c1O` [Example 6, N-[(4-Chlorophenyl)methyl]-4-hydroxy-3-quinolinecarboxamide], the IC50 was 2.3 µM on HSV polymerase, 7.6 µM on HCMV polymerase and 0.7 µM on VZV polymerase.

`COc1cc(CCCO)cc2c(O)c(C(=O)NCc3ccc(Cl)cc3)cnc12` [Example 120, N-(4-Chlorobenzyl)-4-hydroxy-6-(3-hydroxypropyl)-8-methoxy-3-quinolinecarboxamide]: the values for the IC50 on HSV polymerase, on HCMV polymerase and at VZV polymerase were 0.25 µM, 0.27 µM and 0.08 µM, respectively.

As for `O=C(NCc1ccc(Cl)cc1)c1cnc2c(OCCO)cc(CCCO)cc2c1O` [Example 124, N-(4-Chlorobenzyl)-4-hydroxy-8-(2-hydroxyethoxy)-6-(3-hydroxypropyl)-3-quinolinecarboxamide], the half-inhibitory concentration (IC50) at HSV polymerase is 0.6 µM; at HCMV polymerase, 0.25 µM; on VZV polymerase it was 0.39 µM.

For `O=C(NCc1ccc(Cl)cc1)c1cnc2c(F)cccc2c1O` [Example 12, N-[(4-Chlorophenyl)methyl]-8-fluoro-4-hydroxy-3-quinoline-carboxamide], the concentration for half-maximal inhibition (IC50) was 3.4 µM at HSV polymerase, 1.4 µM at HCMV polymerase and less than 3.1 µM at VZV polymerase.

Regarding `O=C(NCc1ccc(Cl)cc1)c1cnc2cc(-n3cccc3)ccc2c1O` [Example 32, N-[(4-Chlorophenyl)methyl]-4-hydroxy-7-(1-pyrrolyl)-3-quinolinecarboxamide], the concentration for half-maximal inhibition (IC50) on HSV polymerase is greater than 100 µM; at HCMV polymerase, 22 µM; at VZV polymerase, 53.8 µM.

With `O=C(NCc1ccc(Cl)cc1)c1cnc2ccc(CCCO)cc2c1O` [Example 144, N-(4-Chlorobenzyl)-4-hydroxy-6-(3-hydroxypropyl)-3-quinolinecarboxamide], the half-maximal inhibitory concentration (IC50) on HSV polymerase is 0.28 µM; at HCMV polymerase, 0.28 µM; on VZV polymerase, 0.07 µM.

In the case of `CC(O)CCc1ccc2ncc(C(=O)NCc3ccc(Cl)cc3)c(O)c2c1` (stereo not drawn) [Example 157, N-(4-Chlorobenzyl)-4-hydroxy-6-(3-hydroxybutyl)-3-quinolinecarboxamide], the half-inhibitory concentration (IC50) stood at 1.8 µM on HSV polymerase, 0.92 µM at HCMV polymerase and 0.89 µM at VZV polymerase.

Turning to `O=C(NCc1ccc(Cl)cc1)c1cnc2c(F)cc(C#CCO)cc2c1O` [Example 53, N-[(4-Chlorophenyl)methyl]-8-fluoro-4-hydroxy-6-(3-hydroxy-1-propynyl)-3-quinolinecarboxamide], the IC50 at HSV polymerase was 0.64 µM; at HCMV polymerase, less than 0.78 µM; at VZV polymerase, 0.39 µM.

Consider `COc1ccc2c(O)c(C(=O)NCc3ccc(Cl)cc3)cnc2c1` [Example 7, N-[(4-Chlorophenyl)methyl]-4-hydroxy-7-methoxy-3-quinoline-carboxamide], for which the half-maximal inhibitory concentration (IC50) at HSV polymerase was determined as 5.5 µM; at HCMV polymerase, 4.9 µM; on VZV polymerase, 0.7 µM.

Take `O=C(NCc1ccc(Cl)cc1)c1cnc2c(F)cc(-c3cccs3)cc2c1O` [Example 75, N-[(4-Chlorophenyl)methyl]-8-fluoro-4-hydroxy-6-(2-thiophenyl)-3-quinolinecarboxamide]: the IC50 at HSV polymerase was 0.43 µM; at HCMV polymerase it was 0.17 µM; on VZV polymerase it was 0.16 µM.

On to `CN(C)CC(=O)OCCCc1cc(F)c2ncc(C(=O)NCc3ccc(Cl)cc3)c(O)c2c1` [Example 148, 3-(3-{[(4-Chlorobenzyl)amino]carbonyl}-8-fluoro-4-hydroxy-6-quinolinyl)propyl 2-(dimethylamino)acetate], for which the values for the IC50 at HSV polymerase, at HCMV polymerase and on VZV polymerase were 1.4 µM, 2.4 µM and 1 µM, respectively.

For `O=C(NCc1ccc(Cl)cc1)c1cnc2ccc([N+](=O)[O-])cc2c1O` [Example 13, N-[(4-Chlorophenyl)methyl]-4-hydroxy-6-nitro-3-quinoline-carboxamide], the IC50 on HSV polymerase was 3 µM; on HCMV polymerase, less than 2.3 µM; at VZV polymerase it was less than 2.3 µM.

In the case of `O=C(NCc1ccc(Cl)cc1)c1cnc2ccc(F)cc2c1O` [Example 10, N-[(4-Chlorophenyl)methyl]-6-fluoro-4-hydroxy-3-quinoline-carboxamide], the figures for the half-inhibitory concentration (IC50) on HSV polymerase, at HCMV polymerase and on VZV polymerase were 14 µM, 9.7 µM and 3.9 µM, respectively.

`COCC#Cc1cc(OC)c2ncc(C(=O)NCc3ccc(Cl)cc3)c(O)c2c1` [Example 119, N-(4-Chlorobenzyl)-4-hydroxy-8-methoxy-6-(3-methoxy-1-propynyl)-3-quinolinecarboxamide]: the IC50 worked out at 0.73 µM on HSV polymerase, 1.5 µM at HCMV polymerase and 0.57 µM on VZV polymerase.

On to `CS(=O)(=O)Nc1ccc2c(O)c(C(=O)NCc3ccc(Cl)cc3)cnc2c1` [Example 26, N-[(4-Chlorophenyl)methyl]-4-hydroxy-7-[(methylsulfonyl)-amino]-3-quinolinecarboxamide], for which the half-maximal inhibitory concentration (IC50) amounted to 25 µM on HSV polymerase, 17 µM on HCMV polymerase and 14 µM at VZV polymerase.
